Measured values taken from ChEMBL document CHEMBL1201862, “PubChem BioAssay data set” (2004).
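These data come from cells grown in 96-well plates and exposed to compound for 48 hours at five concentrations. GI50 = concentration required for 50% inhibition of growth.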 The source made the active and inactive calls. No stated cut-off is given here; in the data, active = GI50 up to about 1.1 µM and inactive = higher.

Tests used:
Assay in all cases: NCI-60 cell line screen, 48 h
ACHN = system: ACHN
COLO 205 = system: COLO 205
DU-145 = system: DU-145
IGROV-1 = system: IGROV-1
MCF7 = system: MCF7
MDA-MB-231 = system: MDA-MB-231
NCI-H226 = system: NCI-H226
SF-539 = system: SF-539
SK-MEL-28 = system: SK-MEL-28
SK-MEL-5 = system: SK-MEL-5
SN12C = system: SN12C
SNB-19 = system: SNB-19
SNB-75 = system: SNB-75
U-251 = system: U-251
UACC-257 = system: UACC-257
K562 = system: K562
Malme-3M = system: Malme-3M
RPMI-8226 = system: RPMI-8226
SR = system: SR

Measured: GI50

CCOC(=O)Cc1csc2[n+]1C(=O)/C(=C\c1cccc(Cl)c1Cl)S2
inactive: ACHN 17.9 µM | COLO 205 1.7 µM | DU-145 16.9 µM | IGROV-1 20.1 µM | MCF7 28.1 µM | MDA-MB-231 25.9 µM | NCI-H226 14.8 µM | SF-539 22.3 µM | SK-MEL-28 19.5 µM | SK-MEL-5 8.93 µM | SN12C 16.2 µM | SNB-19 21 µM | SNB-75 23.8 µM | U-251 16.6 µM | UACC-257 20.1 µM

CCCCOC(=O)C(=O)C(CC(CC)C(=O)c1ccccc1)C(=O)C=C(C)C (stereo not drawn)
inactive: ACHN > 100 µM | COLO 205 > 100 µM | DU-145 > 100 µM | IGROV-1 > 100 µM | MCF7 > 100 µM | MDA-MB-231 > 100 µM | NCI-H226 > 100 µM | SF-539 > 100 µM | SK-MEL-28 > 100 µM | SK-MEL-5 > 100 µM | SN12C > 100 µM | SNB-19 > 100 µM | SNB-75 > 100 µM | U-251 > 100 µM | UACC-257 > 100 µM

O=c1[nH]n(Cc2ccccn2)c2ccc([N+](=O)[O-])cc12
inactive: ACHN > 100 µM | COLO 205 > 100 µM | DU-145 > 100 µM | IGROV-1 > 100 µM | K562 > 100 µM | MDA-MB-231 > 100 µM | Malme-3M > 100 µM | NCI-H226 > 100 µM | RPMI-8226 > 100 µM | SF-539 > 100 µM | SK-MEL-28 > 100 µM | SK-MEL-5 > 100 µM | SN12C > 100 µM | SNB-19 > 100 µM | SNB-75 > 100 µM | SR > 100 µM | U-251 > 100 µM | UACC-257 > 100 µM

COc1ccc(-c2cc(-c3cc4cc(Br)ccc4nc3Cl)c(C#N)c(N)n2)cc1
inactive: COLO 205 > 12.5 µM | DU-145 > 12.5 µM | IGROV-1 > 12.5 µM | K562 > 12.5 µM | MCF7 > 12.5 µM | Malme-3M > 12.5 µM | NCI-H226 > 12.5 µM | RPMI-8226 > 12.5 µM | SF-539 > 12.5 µM | SK-MEL-28 > 12.5 µM | SK-MEL-5 > 12.5 µM | SN12C > 12.5 µM | SNB-19 > 12.5 µM | SNB-75 > 12.5 µM | SR 4.28 µM

CC(C)(C)OC(=O)NC1CCCC1C(O)(C1=CCCC1)C1=CCCC1 (stereo not drawn)
inactive: ACHN > 100 µM | COLO 205 > 100 µM | DU-145 > 100 µM | IGROV-1 > 100 µM | MDA-MB-231 43.2 µM | NCI-H226 > 100 µM | RPMI-8226 > 100 µM | SK-MEL-28 > 100 µM | SK-MEL-5 > 100 µM | SN12C > 100 µM | SNB-19 > 100 µM | SNB-75 48.1 µM | SR > 100 µM | U-251 > 100 µM | UACC-257 > 100 µM
